Source: ChEMBL document CHEMBL3638677, “Bicyclic compounds and their uses as dual c-SRC/JAK inhibitors” (2015)

How the values were obtained:
[1] = molecular target: Tyrosine-protein kinase JAK2 (Homo sapiens, UniProt O60674); test: (§1) TR-FRET Assay: Compounds were screened in the TR-FRET assay for JAK2 and c-Src kinase inhibition. Ultra light poly GT (Perkin Elmer) was used as the substrate for JAK2 and c-Src with the ATP concentration of 10 μM and 50 μM, respectively.
[2] = molecular target: Proto-oncogene tyrosine-protein kinase Src (Homo sapiens, UniProt P12931); test: as §1, with “respectively. The Eu-labelled anti-phospho tyrosine antibody (Perkin Elmer) was added at 1 nM and the fluorescence emission at 615 nm and 665 nm was measured with an excitation wavelength of 340 nm.” for “respectively.”
Proto-oncogene tyrosine-protein kinase Src, sequence (P12931 2-536 limits assumed): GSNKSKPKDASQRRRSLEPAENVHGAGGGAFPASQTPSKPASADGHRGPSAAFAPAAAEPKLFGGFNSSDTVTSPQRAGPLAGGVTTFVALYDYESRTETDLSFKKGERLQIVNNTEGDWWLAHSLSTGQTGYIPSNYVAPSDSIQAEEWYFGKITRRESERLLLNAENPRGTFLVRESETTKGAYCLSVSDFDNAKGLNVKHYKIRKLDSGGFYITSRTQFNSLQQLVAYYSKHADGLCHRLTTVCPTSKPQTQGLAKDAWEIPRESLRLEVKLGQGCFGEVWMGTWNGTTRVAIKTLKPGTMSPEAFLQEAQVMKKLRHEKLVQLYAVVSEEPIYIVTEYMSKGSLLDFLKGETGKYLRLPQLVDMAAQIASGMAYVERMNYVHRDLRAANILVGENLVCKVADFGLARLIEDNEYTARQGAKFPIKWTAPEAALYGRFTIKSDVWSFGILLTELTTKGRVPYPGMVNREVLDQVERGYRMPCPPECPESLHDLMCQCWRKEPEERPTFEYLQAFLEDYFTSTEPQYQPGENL

Tyrosine-protein kinase JAK2, sequence (O60674 whole entry): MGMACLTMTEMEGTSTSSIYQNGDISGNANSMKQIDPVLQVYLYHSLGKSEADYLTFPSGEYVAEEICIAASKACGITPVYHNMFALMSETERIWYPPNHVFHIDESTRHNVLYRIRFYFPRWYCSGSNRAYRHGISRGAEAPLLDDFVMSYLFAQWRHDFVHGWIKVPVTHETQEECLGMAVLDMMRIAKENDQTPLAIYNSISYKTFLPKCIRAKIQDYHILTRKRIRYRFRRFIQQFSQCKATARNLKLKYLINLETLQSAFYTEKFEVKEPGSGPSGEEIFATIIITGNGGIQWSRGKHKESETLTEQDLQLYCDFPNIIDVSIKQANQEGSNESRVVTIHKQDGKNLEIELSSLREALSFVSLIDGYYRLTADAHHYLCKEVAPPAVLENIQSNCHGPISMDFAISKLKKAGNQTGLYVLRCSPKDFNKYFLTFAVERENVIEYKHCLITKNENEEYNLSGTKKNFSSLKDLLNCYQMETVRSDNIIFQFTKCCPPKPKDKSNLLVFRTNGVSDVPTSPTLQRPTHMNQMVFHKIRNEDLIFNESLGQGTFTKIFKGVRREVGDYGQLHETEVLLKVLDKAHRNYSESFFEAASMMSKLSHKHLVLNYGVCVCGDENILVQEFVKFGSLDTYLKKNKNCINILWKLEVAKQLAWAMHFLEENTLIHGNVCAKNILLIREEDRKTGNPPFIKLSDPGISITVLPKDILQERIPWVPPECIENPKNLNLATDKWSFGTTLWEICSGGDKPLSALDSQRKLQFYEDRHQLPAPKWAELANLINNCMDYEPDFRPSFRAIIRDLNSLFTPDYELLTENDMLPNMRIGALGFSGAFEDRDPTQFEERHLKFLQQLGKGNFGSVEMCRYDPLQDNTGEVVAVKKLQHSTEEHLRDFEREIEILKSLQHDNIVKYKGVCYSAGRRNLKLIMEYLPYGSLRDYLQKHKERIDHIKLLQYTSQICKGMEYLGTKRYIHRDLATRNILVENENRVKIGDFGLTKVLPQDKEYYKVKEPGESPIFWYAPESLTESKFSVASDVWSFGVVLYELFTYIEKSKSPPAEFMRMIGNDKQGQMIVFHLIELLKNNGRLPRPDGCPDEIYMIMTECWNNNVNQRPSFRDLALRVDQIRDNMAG

| IC50 [1] [nM] | IC50 [2] [nM] | Structure (SMILES) |
| --- | --- | --- |
| 8.8 |  | CN1CCN(c2ccc(Nc3ncc4c(n3)CCN(c3cc(NC(=O)c5cccc(C(F)(F)F)c5)ccc3Cl)C4)cc2)CC1 |
| 7 | 2 | Cc1ccc(NC(=O)c2cccc(C(F)(F)F)c2)cc1N1CCc2nc(Nc3ccc(C(=O)NC4CCN(C)CC4)cc3)ncc2C1 |
| 45 | 28 | Cc1ccc(NC(=O)c2cccc(C(C)(C)C)c2)cc1N1CCc2nc(Nc3ccc(N4CCN(C)CC4)cc3)ncc2C1=O |
| 9 |  | CN1CCN(c2ccc(Nc3ncc4c(n3)CCN(c3cc(NC(=O)c5cc(F)cc(C(F)(F)F)c5)ccc3Cl)C4=O)cc2)CC1 |
